The supplement of paper PMC10307832

What was measured:
Test in all cases: relative viability (nuclei count vs DMSO), 5 days (fraction); higher = more cells survive
Darinaparsin + Foretinib = compound: C[As](C)SC[C@H](NC(=O)CC[C@H](N)C(=O)O)C(=O)NCC(=O)O [Darinaparsin] + COc1cc2c(Oc3ccc(NC(=O)C4(C(=O)Nc5ccc(F)cc5)CC4)cc3F)ccnc2cc1OCCCN1CCOCC1 [Foretinib] (partner 0.25 µM)
In short: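 Dosing by pin tool came one day after lung cancer cell lines were seeded in 1536-well plates, using either one drug or a fixed anchor-drug dose plus five library-drug doses (not always all listed) in √10 steps. After 5 days, nuclei were counted on 4× images. Relative viability is treated-well nuclei count divided by vehicle-well nuclei count, and values are medians of duplicate plates.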

AZ628 = compound: CC1=C(C=C(C=C1)NC(=O)C2=CC(=CC=C2)C(C)(C)C#N)NC3=CC4=C(C=C3)N=CN(C4=O)C [AZ628]
In short: (§1)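 Five library-drug doses spaced by √10 were pinned onto vehicle-anchored 1536-well plates of lung cancer cell lines that had been kept overnight at 37 °C. Cells went 5 days without medium change, then were fixed, permeabilised and Hoechst-stained together, imaged at 4× and counted by MetaXpress. Viability is the ratio of treated-well to vehicle-well nuclei, taken as a median over plates. Plates required control CV below 25% and at least one doubling.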

QS11 = compound: C1CC2=C(C1)C=C(C=C2)OC3=NC(=C4C(=N3)N(C=N4)CC5=CC=C(C=C5)C6=CC=CC=C6)N[C@@H](CC7=CC=CC=C7)CO [QS11]
In short: as §1

Darinaparsin = compound: C[As](C)SC[C@H](NC(=O)CC[C@H](N)C(=O)O)C(=O)NCC(=O)O [Darinaparsin]
In short: as §1

Cell Line | relative viability (Darinaparsin + Foretinib; first compound 0.08 µM) | relative viability (Darinaparsin + Foretinib; first compound 0.8 µM) | relative viability (Darinaparsin + Foretinib; first compound 2.53 µM) | relative viability (Darinaparsin + Foretinib; first compound 8 µM) | relative viability (AZ628; 0.08 µM) | relative viability (AZ628; 0.253 µM) | relative viability (AZ628; 0.8 µM) | relative viability (AZ628; 2.53 µM) | relative viability (AZ628; 8 µM) | relative viability (QS11; 0.08 µM) | relative viability (QS11; 0.253 µM) | relative viability (QS11; 0.8 µM) | relative viability (QS11; 2.53 µM) | relative viability (QS11; 8 µM) | relative viability (Darinaparsin; 0.08 µM) | relative viability (Darinaparsin; 0.8 µM) | relative viability (Darinaparsin; 2.53 µM) | relative viability (Darinaparsin; 8 µM)
201T | 1.2 | 1.15 | 1.19 | 1.03 | 1.03 | 0.997 | 1.07 | 1.06 | 1.04 | 0.994 | 0.909 | 0.819 | 0.895 | 0.828 | 0.996 | 0.998 | 0.947 | 0.986
A549 | 1.27 | 0.991 | 0.896 | 1.41 | 1.02 | 0.865 | 0.787 | 0.897 | 0.452 | 0.974 | 0.971 | 0.829 | 0.912 | 0.927 | 1 | 0.987 | 0.991 | 1.21
A-427 | 1.35 | 1.15 | 0.989 | 1.32 | 0.999 | 0.891 | 0.884 | 0.919 | 0.436 | 0.862 | 1.05 | – | 1.05 | 1.04 | 1.1 | 0.96 | 1.03 | 1.13
ABC-1 | 1.36 | 0.995 | 1.18 | 1.08 | 1.12 | 0.727 | 0.873 | 0.793 | 0.767 | 1 | 0.957 | 0.895 | 1.17 | 1.15 | 0.952 | 0.956 | 0.928 | 0.968
BEN | 0.668 | 0.708 | 0.621 | 0.691 | 1.11 | 0.838 | 0.899 | 1.01 | 0.843 | 0.821 | 1.03 | 1.13 | 1.1 | 1.25 | 1.08 | 1.03 | 0.92 | 1.3
CAL-12T | 1.23 | 0.983 | 1.12 | 1.14 | 0.987 | 0.831 | 0.81 | 0.806 | 0.685 | 0.96 | 0.986 | 0.96 | 0.908 | 0.873 | 1.15 | 1 | 0.985 | 1.11
COR-L23 | 1.21 | 1.04 | 0.934 | 1.34 | 1.08 | 1.1 | 0.957 | 1.12 | 0.614 | 1.02 | 1.01 | 0.827 | 0.918 | 0.648 | 1.11 | 0.995 | 0.96 | 1.37
COR-L 105 | 1.12 | 1.2 | 1.1 | 1.04 | 1.01 | 1.14 | 0.951 | 0.928 | 0.592 | 0.895 | 0.89 | 0.822 | 0.892 | 0.831 | 0.996 | 0.986 | 0.781 | 1.03
Calu-6 | 1.04 | 1.02 | 0.861 | 0.938 | 1.02 | 0.899 | 0.754 | 0.784 | 0.207 | 1.11 | 1.06 | 0.941 | 1.1 | 1.07 | 1.2 | 0.99 | 1.01 | 1.14
